Measurements reported in patent publication US20260325685A1, “Radiopharmaceutical Compositions Targeting Carbonic Anhydrase IX and Uses Thereof” (RayzeBio, Inc., priority 2023, published 2026).
Where two headings read alike, the source gives them in different places.

Experiments:
human CA-XII = target: T1, human CA-XII (Homo sapiens, UniProt O43570); experiment: Surface Plasmon Resonance (SPR) binding kinetics to recombinant human CA-XII (Biacore 8K, single-cycle kinetics, 1:1 binding model)
T1 construct: purchased Creative BioMart CA12-261H
T1 sequence (O43570 25-354): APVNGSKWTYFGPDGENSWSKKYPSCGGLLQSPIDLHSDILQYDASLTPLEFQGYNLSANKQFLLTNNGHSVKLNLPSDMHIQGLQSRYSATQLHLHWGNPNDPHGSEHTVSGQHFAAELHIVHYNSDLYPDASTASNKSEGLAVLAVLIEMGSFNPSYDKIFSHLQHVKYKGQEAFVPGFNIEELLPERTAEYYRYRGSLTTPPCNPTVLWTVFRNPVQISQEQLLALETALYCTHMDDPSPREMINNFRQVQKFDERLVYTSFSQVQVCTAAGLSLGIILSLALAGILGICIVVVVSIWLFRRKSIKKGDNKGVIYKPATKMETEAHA
How it was run: (§1)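 Recombinant human CA-IX or CA-XII captured on streptavidin chips (1200-1800 RU) in PBS-P+, pH 7.4. Single-cycle kinetics over 9 analyte concentrations (100-0.39 nM) with 1% DMSO, 120 s association, 1200 s dissociation, 25° C. Reference- and DMSO-corrected curves fit to 1:1 model for on/off rates.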

human CA-IX = target: T2, human CA-IX (Homo sapiens, UniProt Q16790); experiment: Surface Plasmon Resonance (SPR) binding kinetics to recombinant human CA-IX (Biacore 8K, single-cycle kinetics, 1:1 binding model)
T2 construct: purchased Acro CA9-H82E3
How it was run: as §1

[1] = Chelated Metal: Lu-175, 25° C., pH 7.4, read-out: CAXII KD
[2] = Chelated Metal: Lu-175; SPR, 25° C., pH 7.4; read-out: CAIX KD
[3] = read-out: CAXII KD, Chelated Metal: Lu-175, 25° C., pH 7.4
[4] = read-out: CAIX KD; Chelated Metal: Lu-175; SPR, 25° C., pH 7.4
[5] = Chelated Metal: None, 25° C., pH 7.4, read-out: CAXII KD
[6] = Chelated Metal: None; SPR, 25° C., pH 7.4; read-out: CAIX KD
[7] = KD ratio CAXII/CAIX; Chelated Metal: None

Structure (SMILES) | Kd (human CA-XII; [1]) [nM] | Kd (human CA-IX; [2]) [nM] | other results
NS(=O)(=O)c1nnc(NC(=O)C23CCC(c4cn(CCNC(=O)[C@@H]5CN(C(=O)CN6CCN(CC(=O)O)CCN(CC(=O)O)CCN(CC(=O)O)CC6)CCN5C(=O)CC[C@H](NC(=O)C[C@H](NC(=O)c5ccc(C6CCCCC6)cc5)C(=O)O)C(=O)O)nn4)(CC2)CC3)s1.[Lu+3] [Compound 109.55] | < 1 | < 1 | –
NS(=O)(=O)c1nnc(NC(=O)C23CCC(c4cn(CCNC(=O)[C@@H]5CN(C(=O)CN6CCN(CC(=O)O)CCN(CC(=O)O)CCN(CC(=O)O)CC6)CCN5C(=O)CC[C@H](NC(=O)C[C@H](NC(=O)C5CC6(CCC6)C5)C(=O)O)C(=O)O)nn4)(CC2)CC3)s1.[Lu+3] [Compound 109.51] | < 1 | < 1 | –
CC(CCCC(=O)N1CCC(C(N)=O)(C(=O)NCC(=O)N2CCN(C(=O)CN3CCN(CC(=O)O)CCN(CC(=O)O)CCN(CC(=O)O)CC3)C[C@H]2C(=O)NCCn2nnc(C34CC(C(=O)Nc5nnc(S(N)(=O)=O)s5)(C3)C4)c2C(=O)O)CC1)(c1ccc(O)cc1)c1ccc(O)cc1.[Lu+3] [Compound 107.58] | > 10 | < 1 | –
NS(=O)(=O)c1nnc(CC(=O)C23CC(c4cn(CCNC(=O)[C@H]5COCCN5C(=O)CC[C@H](NC(=O)[C@H](CCCCNC(=O)CN5CCN(CC(=O)O)CCN(CC(=O)O)CCN(CC(=O)O)CC5)NC(=O)c5n[nH]c6ccccc56)C(=O)O)nn4)(C2)C3)s1.[Lu+3] [Compound 118.4] | > 10 | 1 to 2.5 | –
CC(CCC(=O)N[C@@H](CC(=O)N[C@@H](CCC(=O)N1CCN(C(=O)CN2CCN(CC(=O)O)CCN(CC(=O)O)CCN(CC(=O)O)CC2)C[C@H]1C(=O)NCCn1cc(C23CC(C(=O)Nc4nnc(S(N)(=O)=O)s4)(C2)C3)nn1)C(=O)O)C(=O)O)(c1ccc(O)cc1)c1ccc(O)cc1.[Lu+3] [Compound 107.39] | > 10 | < 1 | –
CC(CCC(=O)N1CCOC[C@H]1C(=O)N[C@@H](CC(=O)N1CCN(C(=O)CN2CCN(CC(=O)O)CCN(CC(=O)O)CCN(CC(=O)O)CC2)C[C@@H]1Cn1cc(C23CC(C(=O)Nc4nnc(S(N)(=O)=O)s4)(C2)C3)nn1)C(=O)O)(c1ccc(O)cc1)c1ccc(O)cc1.[Lu+3] [Compound 114] | – | – | Kd (human CA-XII; [3]): > 10 nM; Kd (human CA-IX; [4]): 1 to 2.5 nM
CC(CCC(=O)N[C@@H](CC(=O)N[C@@H](CC(=O)N1CCN(C(=O)CN2CCN(CC(=O)O)CCN(CC(=O)O)CCN(CC(=O)O)CC2)C[C@H]1CCCCn1cc(C23CCC(C(=O)Nc4nnc(S(N)(=O)=O)s4)(CC2)C3)nn1)C(=O)O)C(=O)O)(c1ccc(O)cc1)c1ccc(O)cc1 [Compound 104.1] | – | – | Kd (human CA-XII; [5]): < 1 nM; Kd (human CA-IX; [6]): < 1 nM; Ratio (CAXII/CAIX) (human CA-IX; [7]): * (1 < * < 5)
CC(CCC(=O)N[C@@H](CCC(=O)N1CCN(C(=O)CN2CCN(CC(=O)O)CCN(CC(=O)O)CCN(CC(=O)O)CC2)C[C@@H]1C(=O)NCCn1cc(C23CC(C(=O)Nc4nnc(S(N)(=O)=O)s4)(C2)C3)nn1)C(=O)O)(c1ccc(O)cc1)c1ccc(O)cc1.[Lu+3] [Compound 107.11] | > 10 | < 1 | –
NS(=O)(=O)c1nnc(NC(=O)C23CC(c4cn(CCNC(=O)[C@@H]5CN(C(=O)CN6CCN(CC(=O)O)CCN(CC(=O)O)CCN(CC(=O)O)CC6)CCN5C(=O)C[C@H](Nc5ncc(C(=O)NCc6ccc(C7CC7)cc6)cn5)C(=O)O)nn4)(C2)C3)s1.[Lu+3] [Compound 111.3] | > 10 | 1 to 2.5 | –
NS(=O)(=O)c1nnc(NC(=O)C23CC(c4cn(CCNC(=O)[C@@H]5CN(C(=O)CN6CCN(CC(=O)O)CCN(CC(=O)O)CCN(CC(=O)O)CC6)CCN5C(=O)CNC(=O)C5(C(=O)O)CCN(C(=O)c6n[nH]c7ccccc67)CC5)nn4)(C2)C3)s1.[Lu+3] [Compound 112.10] | > 10 | < 1 | –
NS(=O)(=O)c1nnc(NC(=O)C23CC(c4cn(CCNC(=O)[C@H]5CN(C(=O)CN6CCN(CC(=O)O)CCN(CC(=O)O)CCN(CC(=O)O)CC6)CCN5C(=O)CC[C@H](NC(=O)c5n[nH]c6ccccc56)C(=O)O)nn4)(C2)C3)s1.[Lu+3] [Compound 107.17] | 1 to 2.5 | < 1 | –
CC(CCC(=O)N[C@@H](CC(=O)N[C@@H](CC(=O)N1CCN(C(=O)CN2CCN(CC(=O)O)CCN(CC(=O)O)CCN(CC(=O)O)CC2)C[C@H]1C(=O)NCCn1cc(C23CCC(C(=O)Nc4nnc(S(N)(=O)=O)s4)(C2)C3)nn1)C(=O)O)C(=O)O)(c1ccc(O)cc1)c1ccc(O)cc1.[Lu+3] [Compound 107.5] | < 1 | < 1 | –
CC(CCCC(=O)N[C@@H](CC(=O)N[C@@H](CC(=O)N1CCN(C(=O)CN2CCN(CC(=O)O)CCN(CC(=O)O)CCN(CC(=O)O)CC2)C[C@H]1C(=O)NCCn1cc(C23CC(C(=O)Nc4nnc(S(N)(=O)=O)s4)(C2)C3)nn1)C(=O)O)C(=O)O)(c1ccc(O)cc1)c1ccc(O)cc1 [Compound 109.62] | – | – | Kd (human CA-XII; [5]): > 10 nM; Kd (human CA-IX; [6]): < 1 nM; Ratio (CAXII/CAIX) (human CA-IX; [7]): *** (10 < *** ≤ 50)
CC(CCC(=O)N[C@@H](CC(=O)N[C@@H](CC(=O)N1CCN(C(=O)NCCOCCNC(=O)CN2CCN(CC(=O)O)CCN(CC(=O)O)CCN(CC(=O)O)CC2)C[C@@H]1CCCCn1cc(CCCC(=O)Nc2nnc(S(N)(=O)=O)s2)nn1)C(=O)O)C(=O)O)(c1ccc(O)cc1)c1ccc(O)cc1.[Lu+3] [Compound 123] | – | – | Kd (human CA-XII; [3]): 2.5 to 10 nM; Kd (human CA-IX; [4]): 1 to 2.5 nM
N[C@@H](CC(=O)N[C@@H](CC(=O)N1CCN(C(=O)CN2CCN(CC(=O)O)CCN(CC(=O)O)CCN(CC(=O)O)CC2)C[C@H]1C(=O)NCCn1cc(C23CC(C(=O)Nc4nnc(S(N)(=O)=O)s4)(C2)C3)nn1)C(=O)O)C(=O)O.[Lu+3] [Compound 109.13] | 2.5 to 10 | < 1 | –
CC(CCC(=O)N[C@@H](CC(=O)N[C@@H](CC(=O)N[C@@H](CCCCn1nnc(C(=O)O)c1C12CCC(C(=O)Nc3nnc(S(N)(=O)=O)s3)(CC1)CC2)C(=O)NCCOCCOCCNC(=O)CN1CCN(CC(=O)O)CCN(CC(=O)O)CCN(CC(=O)O)CC1)C(=O)O)C(=O)O)(c1ccc(O)cc1)c1ccc(O)cc1.[Lu+3] [Compound 122] | – | – | Kd (human CA-XII; [3]): 1 to 2.5 nM; Kd (human CA-IX; [4]): 1 to 2.5 nM
NS(=O)(=O)c1nnc(NC(=O)C23CCC(c4cn(CCNC(=O)[C@@H]5CN(C(=O)CN6CCN(CC(=O)O)CCN(CC(=O)O)CCN(CC(=O)O)CC6)CCN5C(=O)CC[C@H](NC(=O)C[C@H](NC(=O)CCC(F)(F)F)C(=O)O)C(=O)O)nn4)(CC2)CC3)s1.[Lu+3] [Compound 109.53] | < 1 | < 1 | –
CC(CCC(=O)N[C@@H](CC(=O)N[C@@H](CC(=O)N[C@@H](CCCCn1cc(C23CC(C(=O)Nc4nnc(S(N)(=O)=O)s4)(C2)C3)nn1)C(=O)NCCOCCOCCNC(=O)CN1CCN(CC(=O)O)CCN(CC(=O)O)CCN(CC(=O)O)CC1)C(=O)O)C(=O)O)(c1ccc(O)cc1)c1ccc(O)cc1.[Lu+3] [Compound 100] | – | – | Kd (human CA-XII; [3]): > 10 nM; Kd (human CA-IX; [4]): 1 to 2.5 nM
NS(=O)(=O)c1nnc(NC(=O)C23CC(c4cn(CCNC(=O)[C@@H]5CN(C(=O)CN6CCN(CC(=O)O)CCN(CC(=O)O)CCN(CC(=O)O)CC6)CCN5C(=O)CNC(=O)C5(C(=O)O)CCN(C(=O)CCCCc6ccc(I)cc6)CC5)nn4)(C2)C3)s1.[Lu+3] [Compound 112.19] | > 10 | < 1 | –
CC1(C)CN(C(=O)CCCC(C)(c2ccc(O)cc2)c2ccc(O)cc2)[C@H](C(=O)N[C@@H](CC(=O)N2CCN(C(=O)CN3CCN(CC(=O)O)CCN(CC(=O)O)CCN(CC(=O)O)CC3)C[C@@H]2C(=O)NCCn2cc(C34CC(C(=O)Nc5nnc(S(N)(=O)=O)s5)(C3)C4)nn2)C(=O)O)CO1.[Lu+3] [Compound 107.32] | > 10 | < 1 | –
NS(=O)(=O)c1nnc(NC(=O)C23CC(c4cn(CCNC(=O)[C@@H]5CN(C(=O)CN6CCN(CC(=O)O)CCN(CC(=O)O)CCN(CC(=O)O)CC6)CCN5C(=O)C[C@H](NC(=O)C[C@H](NC(=O)c5ccc(CC6CC6)cc5)C(=O)O)C(=O)O)nn4)(C2)C3)s1.[Lu+3] [Compound 109.38] | 2.5 to 10 | < 1 | –
CC(CCC(=O)N[C@@H](CC(=O)N[C@@H](CC(=O)N1CCN(C(=O)CN2CCN(CC(=O)O)CCN(CC(=O)O)CCN(CC(=O)O)CC2)C[C@H]1C(=O)NCCn1cc(-c2ccc(C(=O)Nc3nnc(S(N)(=O)=O)s3)cc2)nn1)C(=O)O)C(=O)O)(c1ccc(O)cc1)c1ccc(O)cc1.[Lu+3] [Compound 107.22] | > 10 | 1 to 2.5 | –
CC(CCC(=O)N[C@@H](CC(=O)N[C@@H](CC(=O)N1CCN(C(=O)CCOCCOCCOCCOCCOCCOCCOCCOCCNC(=O)CN2CCN(CC(=O)O)CCN(CC(=O)O)CCN(CC(=O)O)CC2)C[C@H]1C(=O)NCCn1cc(C23CC(C(=O)Nc4nnc(S(N)(=O)=O)s4)(C2)C3)nn1)C(=O)O)C(=O)O)(c1ccc(O)cc1)c1ccc(O)cc1.[Lu+3] [Compound 129] | – | – | Kd (human CA-XII; [3]): > 10 nM; Kd (human CA-IX; [4]): 1 to 2.5 nM
CC(CCCC(=O)N1CCC(C(=O)O)(C(=O)NCC(=O)N2CCN(C(=O)CN3CCN(CC(=O)O)CCN(CC(=O)O)CCN(CC(=O)O)CC3)C[C@H]2C(=O)NCCn2cc(C34CC(C(=O)Nc5nnc(S(N)(=O)=O)s5)(C3)C4)nn2)CC1)(c1ccc(O)cc1)c1ccc(O)cc1.[Lu+3] [Compound 112.18] | > 10 | 1 to 2.5 | –
NS(=O)(=O)c1nnc(NC(=O)C23CCC(c4cn(CCNC(=O)[C@@H]5CN(C(=O)CN6CCN(CC(=O)O)CCN(CC(=O)O)CCN(CC(=O)O)CC6)CCN5C(=O)CC[C@H](NC(=O)C[C@H](NCc5ccccc5)C(=O)O)C(=O)O)nn4)(CC2)CC3)s1.[Lu+3] [Compound 110] | – | – | Kd (human CA-XII; [3]): < 1 nM; Kd (human CA-IX; [4]): < 1 nM
CC(C)(C)c1ccc(C(=O)N[C@@H](CC(=O)N[C@@H](CC(=O)N2CCN(C(=O)CN3CCN(CC(=O)O)CCN(CC(=O)O)CCN(CC(=O)O)CC3)C[C@H]2C(=O)NCCn2cc(C34CC(C(=O)Nc5nnc(S(N)(=O)=O)s5)(C3)C4)nn2)C(=O)O)C(=O)O)cc1.[Lu+3] [Compound 109.26] | 2.5 to 10 | 1 to 2.5 | –
